Measurements taken from the NIST ThermoML archive (doi:10.1021/acs.jced.8b00662).

Test: xn = mol fraction of the nth substance listed
Conditions: 100 kPa, Liquid; for viscosity: Falling or rolling sphere viscometry; for mass density: Vibrating tube method

CC(C)C1CCCCC1 [(1-methylethyl)cyclohexane] + c1ccc2c(c1)CCCC2
Conditions | mass density [kg/m3] | viscosity [mPa·s]
293.15 K, x2 = 0 | 802.14 | 1.093
293.15 K, x2 = 0.0995 | 816.67 | 1.129
293.15 K, x2 = 0.1995 | 831.75 | 1.195
293.15 K, x2 = 0.299 | 847.23 | 1.258
293.15 K, x2 = 0.4004 | 863.44 | 1.334
293.15 K, x2 = 0.5006 | 879.87 | 1.436
293.15 K, x2 = 0.5995 | 896.5 | 1.543
293.15 K, x2 = 0.7015 | 914.1 | 1.671
293.15 K, x2 = 0.7991 | 931.39 | 1.823
293.15 K, x2 = 0.9006 | 949.99 | 2.008
298.15 K, x2 = 0 | 798.24 | 1.016
298.15 K, x2 = 0.0995 | 812.77 | 1.053
298.15 K, x2 = 0.1995 | 827.85 | 1.108
298.15 K, x2 = 0.299 | 843.32 | 1.165
298.15 K, x2 = 0.4004 | 859.53 | 1.233
298.15 K, x2 = 0.5006 | 875.96 | 1.324
298.15 K, x2 = 0.5995 | 892.57 | 1.416
298.15 K, x2 = 0.7015 | 910.16 | 1.531
298.15 K, x2 = 0.7991 | 927.44 | 1.662
298.15 K, x2 = 0.9006 | 946.04 | 1.824
303.15 K, x2 = 0 | 794.34 | 0.947
303.15 K, x2 = 0.0995 | 808.86 | 0.98
303.15 K, x2 = 0.1995 | 823.93 | 1.03
303.15 K, x2 = 0.299 | 839.4 | 1.08
303.15 K, x2 = 0.4004 | 855.61 | 1.143
303.15 K, x2 = 0.5006 | 872.03 | 1.225
303.15 K, x2 = 0.5995 | 888.63 | 1.305
303.15 K, x2 = 0.7015 | 906.22 | 1.407
303.15 K, x2 = 0.7991 | 923.49 | 1.521
303.15 K, x2 = 0.9006 | 942.08 | 1.667
308.15 K, x2 = 0 | 790.43 | 0.886
308.15 K, x2 = 0.0995 | 804.95 | 0.916
308.15 K, x2 = 0.1995 | 820.02 | 0.961
308.15 K, x2 = 0.299 | 835.48 | 1.007
308.15 K, x2 = 0.4004 | 851.68 | 1.064
308.15 K, x2 = 0.5006 | 868.1 | 1.137
308.15 K, x2 = 0.5995 | 884.69 | 1.208
308.15 K, x2 = 0.7015 | 902.28 | 1.3
308.15 K, x2 = 0.7991 | 919.54 | 1.404
308.15 K, x2 = 0.9006 | 938.12 | 1.532
313.15 K, x2 = 0 | 786.51 | 0.831
313.15 K, x2 = 0.0995 | 801.03 | 0.859
313.15 K, x2 = 0.1995 | 816.1 | 0.9
313.15 K, x2 = 0.299 | 831.55 | 0.942
313.15 K, x2 = 0.4004 | 847.75 | 0.994
313.15 K, x2 = 0.5006 | 864.17 | 1.06
313.15 K, x2 = 0.5995 | 880.76 | 1.124
313.15 K, x2 = 0.7015 | 898.34 | 1.207
313.15 K, x2 = 0.7991 | 915.59 | 1.3
313.15 K, x2 = 0.9006 | 934.17 | 1.413
318.15 K, x2 = 0 | 782.59 | 0.782
318.15 K, x2 = 0.0995 | 797.11 | 0.798
318.15 K, x2 = 0.1995 | 812.17 | 0.837
318.15 K, x2 = 0.299 | 827.63 | 0.876
318.15 K, x2 = 0.4004 | 843.82 | 0.925
318.15 K, x2 = 0.5006 | 860.23 | 0.986
318.15 K, x2 = 0.5995 | 876.81 | 1.045
318.15 K, x2 = 0.7015 | 894.39 | 1.121
318.15 K, x2 = 0.7991 | 911.63 | 1.206
318.15 K, x2 = 0.9006 | 930.21 | 1.309
323.15 K, x2 = 0 | 778.66 | 0.738
323.15 K, x2 = 0.0995 | 793.18 | 0.761
323.15 K, x2 = 0.1995 | 808.24 | 0.795
323.15 K, x2 = 0.299 | 823.7 | 0.831
323.15 K, x2 = 0.4004 | 839.88 | 0.875
323.15 K, x2 = 0.5006 | 856.3 | 0.93
323.15 K, x2 = 0.5995 | 872.87 | 0.982
323.15 K, x2 = 0.7015 | 890.45 | 1.05
323.15 K, x2 = 0.7991 | 907.69 | 1.123
323.15 K, x2 = 0.9006 | 926.26 | 1.219
328.15 K, x2 = 0 | 774.72 | 0.698
328.15 K, x2 = 0.0995 | 789.24 | 0.72
328.15 K, x2 = 0.1995 | 804.3 | 0.751
328.15 K, x2 = 0.299 | 819.76 | 0.784
328.15 K, x2 = 0.4004 | 835.94 | 0.825
328.15 K, x2 = 0.5006 | 852.35 | 0.875
328.15 K, x2 = 0.5995 | 868.92 | 0.922
328.15 K, x2 = 0.7015 | 886.5 | 0.985
328.15 K, x2 = 0.7991 | 903.74 | 1.051
328.15 K, x2 = 0.9006 | 922.3 | 1.137
333.15 K, x2 = 0 | 770.77 | 0.661
333.15 K, x2 = 0.0995 | 785.29 | 0.681
333.15 K, x2 = 0.1995 | 800.35 | 0.711
333.15 K, x2 = 0.299 | 815.81 | 0.741
333.15 K, x2 = 0.4004 | 831.99 | 0.779
333.15 K, x2 = 0.5006 | 848.4 | 0.825
333.15 K, x2 = 0.5995 | 864.97 | 0.869
333.15 K, x2 = 0.7015 | 882.54 | 0.926
333.15 K, x2 = 0.7991 | 899.78 | 0.986
333.15 K, x2 = 0.9006 | 918.35 | 1.065
338.15 K, x2 = 0 | 766.81 | 0.628
338.15 K, x2 = 0.0995 | 781.34 | 0.647
338.15 K, x2 = 0.1995 | 796.4 | 0.674
338.15 K, x2 = 0.299 | 811.85 | 0.703
338.15 K, x2 = 0.4004 | 828.03 | 0.737
338.15 K, x2 = 0.5006 | 844.44 | 0.78
338.15 K, x2 = 0.5995 | 861.01 | 0.82
338.15 K, x2 = 0.7015 | 878.57 | 0.873
338.15 K, x2 = 0.7991 | 895.81 | 0.928
338.15 K, x2 = 0.9006 | 914.37 | 0.999
343.15 K, x2 = 0 | 762.84 | 0.598
343.15 K, x2 = 0.0995 | 777.38 | 0.616
343.15 K, x2 = 0.1995 | 792.44 | 0.641
343.15 K, x2 = 0.299 | 807.89 | 0.668
343.15 K, x2 = 0.4004 | 824.07 | 0.7
343.15 K, x2 = 0.5006 | 840.47 | 0.74
343.15 K, x2 = 0.5995 | 857.04 | 0.776
343.15 K, x2 = 0.7015 | 874.6 | 0.825
343.15 K, x2 = 0.7991 | 891.84 | 0.875
343.15 K, x2 = 0.9006 | 910.39 | 0.942
